Structures can show the parent of a compound that is named as a salt. Where two headings read alike, the source gives them in different places.

Usually IC50 stands for the concentration that gives 50% inhibition. High values mean lower potency, low ones higher potency.

In the assay the target is ALPK1 (Homo sapiens (Human), UniProt Q96QP1). The assay is described as follows: ALPK1 in vitro kinase assay (HTRF of TIFA phosphorylation). Type of assay: biochemical. The text has this:
In embodiments, a compound of Formula I, or a subembodiment described herein, is an inhibitor of ALPK1 as measured, for example, in an in vitro kinase assay, or an assay designed to measure the activation of downstream targets of ALPK1 pathway activation, for example NFkB transcriptional activation and the secretion of proinflammatory cytokines and chemokines, such as IL-8, which is also referred to as CXCL-8. In general, the computer program XL fit was used for data analysis, including non-linear regression analysis. The half maximal inhibitory concentration (IC50) was used as the measure of a compound's effectiveness in the assays. IC50 values were determined using the following logistic equation Y=min+(max−min)/(1+(X/IC50^−hillslpoe), where Y is the value at the compound concentration, X. The concentration response curve fitting was conducted using GraphPad Prism version 6.00 software.
ALPK1 kinase activity was measured in an in vitro assay using ADP-Heptose as the ALPK1 ligand and activator of its kinase activity and TIFA protein as the ALPK1 phosphorylation substrate. Since phosphorylated TIFA proteins oligomerize, Homogeneous Time-Resolved Fluorescence (HTRF) was used to measure protein:protein interaction between HA-tagged TIFA proteins as an indicator of TIFA phosphorylation.
In brief, dose-response studies were performed with HEK293 cells cultured in Dulbecco's Modified Eagle Medium (DMEM) supplemented 10% fetal bovine serum (FBS, Hyclone™) containing antibiotics (pen/strep, G418) in 384-well assay plates. Each well contained 0.1 mg TIFA, ALPK1 (2 nM final concentration in reaction mixture) and kinase buffer (100 mM of HEPES pH 7.4, 4 mM DTT, 40 mM MgCl2, 20 mM of β-Glycerol phosphate disodium salt, 0.4 mM of Na3VO4, 0.16 mg/mL). Titrations of the test compounds were prepared in dimethylsulphoxide (DMSO). The reaction was initiated by addition of ATP and ADP-Heptose.
For HTRF, samples were incubated with a Tb cryptate-labeled anti-HA antibody for capturing HA-tagged proteins according to the manufacturer's instructions (PerkinElmer™, CisBio™) and the fluorescence signal was quantified (Tecan Infinite F NANO+). HTRF signals were calculated as the HTRF ratio (ratio of fluorescence measured at 665 nm and 620 nm)×104 (thereby using the signal at 620 nm as an internal standard).
IC50 values were determined using 3- or 4-parameter logistic equation using GraphPad Prism version 6.00. The reference compound, A027, was used as a positive control for each plate.
On the technique in general: Time-resolved FRET reads energy transfer from a long-lived donor to a nearby acceptor.

Where [1] appears, read: ALPK1 2 nM, TIFA substrate, ADP-Heptose activator, HTRF readout.

Sequence of ALPK1 (Q96QP1 whole entry): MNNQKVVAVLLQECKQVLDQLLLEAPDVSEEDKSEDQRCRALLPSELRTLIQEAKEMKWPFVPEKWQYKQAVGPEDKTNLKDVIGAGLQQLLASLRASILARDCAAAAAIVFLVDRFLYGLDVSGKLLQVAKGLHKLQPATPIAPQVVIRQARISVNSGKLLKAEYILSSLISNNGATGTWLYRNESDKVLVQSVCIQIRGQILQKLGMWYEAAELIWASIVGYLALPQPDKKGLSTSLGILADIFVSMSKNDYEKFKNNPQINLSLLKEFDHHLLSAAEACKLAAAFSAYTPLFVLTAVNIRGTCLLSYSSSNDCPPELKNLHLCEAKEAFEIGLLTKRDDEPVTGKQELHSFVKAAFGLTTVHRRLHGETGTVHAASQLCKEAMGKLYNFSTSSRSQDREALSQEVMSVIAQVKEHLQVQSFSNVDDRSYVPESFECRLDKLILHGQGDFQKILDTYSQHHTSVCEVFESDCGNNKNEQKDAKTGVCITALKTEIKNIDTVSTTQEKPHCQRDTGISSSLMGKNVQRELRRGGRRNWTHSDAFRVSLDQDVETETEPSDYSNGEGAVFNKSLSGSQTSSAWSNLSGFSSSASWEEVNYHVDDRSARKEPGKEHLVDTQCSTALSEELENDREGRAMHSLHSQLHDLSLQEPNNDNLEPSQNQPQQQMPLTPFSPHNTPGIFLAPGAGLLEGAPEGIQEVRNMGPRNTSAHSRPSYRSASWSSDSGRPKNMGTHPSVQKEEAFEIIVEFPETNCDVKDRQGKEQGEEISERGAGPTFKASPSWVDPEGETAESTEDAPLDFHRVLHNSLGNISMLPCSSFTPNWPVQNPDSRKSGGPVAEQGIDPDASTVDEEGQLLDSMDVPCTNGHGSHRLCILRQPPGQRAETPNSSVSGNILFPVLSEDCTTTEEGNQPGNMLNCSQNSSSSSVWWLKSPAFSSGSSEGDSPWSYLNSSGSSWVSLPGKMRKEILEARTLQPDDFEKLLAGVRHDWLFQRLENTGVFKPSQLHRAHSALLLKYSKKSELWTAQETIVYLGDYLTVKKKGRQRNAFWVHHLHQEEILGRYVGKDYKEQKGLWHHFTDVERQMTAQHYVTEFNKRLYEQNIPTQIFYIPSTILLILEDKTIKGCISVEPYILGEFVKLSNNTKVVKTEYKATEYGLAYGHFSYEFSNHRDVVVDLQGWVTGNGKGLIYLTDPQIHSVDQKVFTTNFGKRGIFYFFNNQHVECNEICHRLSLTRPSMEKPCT

In turn, `C#C[C@@](C)(c1ccc(Cl)cc1)c1csc(NC(=O)c2c(F)cc(N3CCN(CCO)CC3)cc2F)n1` [Example C023, (S)-N-(4-(2-(4-chlorophenyl)but-3-yn-2-yl)thiazol-2-yl)-2,6-difluoro-4-(4-(2-hydroxyethyl)piperazin-1-yl)benzamide] yielded an IC50 under setting [1] of 60 nM.

Under setting [1], `COc1ccc(C(C)(C)c2csc(NC(=O)c3ccc(NCCN(C)C)nc3)n2)cc1` [Example B056, 6-((2-(dimethylamino)ethyl)amino)-N-(4-(2-(4-methoxyphenyl)propan-2-yl)thiazol-2-yl)nicotinamide] had an IC50 of 120 nM.

The compound `CC(C)(c1ccc(Br)cc1)c1csc(NC(=O)NCc2ccc(N3CCC(C(N)=O)CC3)cc2)n1` [Example A006, 1-(4-((3-(4-(2-(4-bromophenyl)propan-2-yl)thiazol-2-yl)ureido)methyl)phenyl) piperidine-4-carboxamide] registered an IC50 of 104 nM.

Turning to `C#C[C@](C)(c1ccc(F)cc1)c1csc(NC(=O)c2ccc(N3CCNCC3CO)cc2)n1` (stereo in doubt) [Example B070, N-[4-[1-(4-fluorophenyl)-1-methyl-prop-2-ynyl]thiazol-2-yl]-4-[2-(hydroxymethyl)piperazin-1-yl]benzamide], the midpoint of inhibition under setting [1], the IC50, lay at 169 nM. This counts as sub-micromolar.

In turn, `Cc1ccc(C(C)(C)c2csc(NC(=O)c3ccc(N4CCNCC4)cc3)n2)cc1` [Example B031, 4-(piperazin-1-yl)-N-(4-(2-(p-tolyl)propan-2-yl)thiazol-2-yl)benzamide] registered an IC50 under setting [1] of 37 nM.

As for `C#CC(C)(c1ccc(Cl)cc1)c1csc(NC(=O)c2ccc(N3CCNCC3)c(OC)c2)n1` (stereo not shown) [Example B066, N-(4-(2-(4-chlorophenyl)but-3-yn-2-yl)thiazol-2-yl)-3-methoxy-4-(piperazin-1-yl)benzamide], the IC50 under setting [1] was 184 nM.

For the compound `CC(C)(c1ccc(Br)cc1)c1csc(NC(=O)NCc2cc(F)c(N3CCNCC3)c(F)c2)n1` [Example B037, 1-(4-(2-(4-bromophenyl)propan-2-yl)thiazol-2-yl)-3-(3,5-difluoro-4-(piperazin-1-yl)benzyl)urea], the midpoint of inhibition under setting [1], the IC50, lay at 23 nM.

For `COc1ccc(C(C)(C)c2csc(NC(=O)c3ccc(N4CCNCC4)nc3)n2)cc1` [Example B042, N-(4-(2-(4-methoxyphenyl)propan-2-yl)thiazol-2-yl)-6-(piperazin-1-yl)nicotinamide], half-maximal inhibition under setting [1] (IC50) required 86 nM. Against the preceding compound, the IC50 is about 3.7-fold higher.

In turn, `C#CC(CC)(c1ccc(Cl)cc1)c1csc(NC(=O)c2c(F)cc(N3CCNCC3)cc2F)n1` (stereo not shown) [Example C047, N-(4-(3-(4-chlorophenyl)pent-1-yn-3-yl)thiazol-2-yl)-2,6-difluoro-4-(piperazin-1-yl)benzamide] gave an IC50 under setting [1] of 131 nM.

Consider `CCOCC(C)(c1ccccc1)c1csc(NC(=O)c2c(F)cc(N3CCNCC3)cc2F)n1` (stereo not shown) [Example C012, N-(4-(1-ethoxy-2-phenylpropan-2-yl)thiazol-2-yl)-2,6-difluoro-4-(piperazin-1-yl)benzamide], for which, under setting [1], the concentration for half-maximal inhibition (IC50) was 78 nM.

`COc1ccc(C(C)(C)c2csc(NC(=O)c3ccc(N4CCNCC4)cn3)n2)cc1` [Example B044, N-(4-(2-(4-methoxyphenyl)propan-2-yl)thiazol-2-yl)-5-(piperazin-1-yl)picolinamide]: under setting [1], the IC50 amounted to 213 nM.

`COc1ccc(C(C)(C)c2csc(NC(=O)c3ccc(OCC(C)O)cc3)n2)cc1` (stereo not shown) [Example B063, 4-(2-hydroxypropoxy)-N-(4-(2-(4-methoxyphenyl)propan-2-yl)thiazol-2-yl)benzamide]: under setting [1], the IC50 stood at 245 nM.

The compound `COc1ccc(C(C)(C)c2csc(NC(=O)NCC(=O)CO)n2)cc1` [Example A074, 1-(3-hydroxy-2-oxopropyl)-3-(4-(2-(4-methoxyphenyl)propan-2-yl)thiazol-2-yl)urea] returned an IC50 of 61 nM. That is a double-digit nanomolar value.

On to `COc1ccc(C(C)(C)c2csc(NC(=O)c3ccc(C4(O)CCNCC4)cc3)n2)cc1` [Example B049, 4-(4-hydroxypiperidin-4-yl)-N-(4-(2-(4-methoxyphenyl)propan-2-yl)thiazol-2-yl)benzamide hydrochloride], for which the midpoint of inhibition under setting [1], the IC50, lay at 459 nM.

Turning to `C#C[C@@](C)(c1ccc(Cl)cc1)c1csc(NC(=O)c2c(F)cc(N3CCC(N)C3)cc2F)n1` (stereo in doubt) [Example B088, 4-(3-aminopyrrolidin-1-yl)-N-(4-(2-(4-chlorophenyl)but-3-yn-2-yl)thiazol-2-yl)-2,6-difluorobenzamide], the IC50 under setting [1] amounted to 42 nM.

Consider `[2H]C([2H])(O)CNC(=O)Nc1nc([C@](C)(C#C)c2ccc(Cl)cc2)cs1` (single isomer, unassigned) [Example A320, 1-[4-[1-(4-chlorophenyl)-1-methyl-prop-2-ynyl]thiazol-2-yl]-3-(2,2-dideuterio-2-hydroxy-ethyl)urea], for which the IC50 came out at 44 nM.

`COc1ccc(C(C)(C)c2csc(NC(=O)NCCCC(=O)NC3CCNCC3)n2)cc1` [Example A071, 4-(3-(4-(2-(4-methoxyphenyl)propan-2-yl)thiazol-2-yl)ureido)-N-(piperidin-4-yl)butanamide]: inhibition was half-maximal at 64 nM (IC50).

In the case of `C#CC(C)(c1ccc(F)cc1)c1csc(NC(=O)c2c(F)cc(N3CCNC(CO)C3)cc2F)n1` (stereo not shown) [Example B082, 2,6-difluoro-N-(4-(2-(4-fluorophenyl)but-3-yn-2-yl)thiazol-2-yl)-4-(3-(hydroxymethyl)piperazin-1-yl)benzamide], inhibition under setting [1] was half-maximal at 25 nM (IC50).

`C#C[C@](C)(c1ccc(F)cc1)c1csc(NC(=O)c2ccc(N3CCNCC3CO)cc2)n1` (stereo in doubt) [Example B072, N-[4-[1-(4-fluorophenyl)-1-methyl-prop-2-ynyl]thiazol-2-yl]-4-[2-(hydroxymethyl)piperazin-1-yl]benzamide] displayed an IC50 under setting [1] of 260 nM. This IC50 is about 10-fold higher than that of the compound before.

Take `COc1ccc(C(C)(C)c2cnc(NC(=O)c3ccc(N4CCNCC4)c(F)c3)s2)cc1` [Example B038, 3-fluoro-N-(5-(2-(4-methoxyphenyl)propan-2-yl)thiazol-2-yl)-4-(piperazin-1-yl)benzamide]: under setting [1], the IC50 was 216 nM.

With `O=C(NCc1cnc(N2CCNCC2)nc1)Nc1nc(C2(c3ccc(Br)cc3)CCCC2)cs1` [Example A180, 1-(4-(1-(4-bromophenyl)cyclopent-yl)thiazol-2-yl)-3-((2-(piperazin-1-yl)pyrimidin-5-yl)methyl)urea], the IC50 is 45 nM.

`COc1ccc(C(C)(C)c2csc(NC(=O)c3ccc(CN4CCN(CCO)CC4)nc3)n2)cc1` [Example B052, 6-((4-(2-hydroxyethyl)piperazin-1-yl)methyl)-N-(4-(2-(4-methoxyphenyl)propan-2-yl)thiazol-2-yl)nicotinamide] registered an IC50 under setting [1] of 111 nM.

With `COc1ccc(C(C)(C)c2csc(NC(=O)c3ccc(N4CCNCC4)c(OC)c3)n2)cc1` [Example B039, 3-methoxy-N-(4-(2-(4-methoxyphenyl)propan-2-yl)thiazol-2-yl)-4-(piperazin-1-yl)benzamide], under setting [1], the IC50 was determined as 123 nM.

In the case of `C#C[C@](C)(c1ccc(Cl)cc1)c1csc(NC(=O)c2c(F)cc(N3CCN(CCO)CC3)cc2F)n1` [Example C022, (R)-N-(4-(2-(4-chlorophenyl)but-3-yn-2-yl)thiazol-2-yl)-2,6-difluoro-4-(4-(2-hydroxyethyl)piperazin-1-yl)benzamide], it took 188 nM to reach half-maximal inhibition under setting [1] (IC50). This IC50 is about 1.5-fold higher than that of the compound before.

The compound `CC(C)(c1ccc(Br)cc1)c1csc(NC(=O)c2ccc(N3CCN(CCO)CC3)nc2)n1` [Example B054, N-(4-(2-(4-bromophenyl)propan-2-yl)thiazol-2-yl)-6-(4-(2-hydroxyethyl)piperazin-1-yl)nicotinamide] registered an IC50 under setting [1] of 269 nM.

For the origin of these results see patent publication US20240109853A1 (Shanghai Yao Yuan Biotechnology Co., Ltd., priority 2020, published 2024).
